Numbers after ± are expanded uncertainties.
Conditions: Capillary rise

SMILES	surface tension liquid-gas (298 K) [mN/m]	surface tension liquid-gas (303 K) [mN/m]	surface tension liquid-gas (308 K) [mN/m]	surface tension liquid-gas (313 K) [mN/m]	surface tension liquid-gas (318 K) [mN/m]	surface tension liquid-gas (323 K) [mN/m]	surface tension liquid-gas (328 K) [mN/m]	surface tension liquid-gas (333 K) [mN/m]	surface tension liquid-gas (338 K) [mN/m]	surface tension liquid-gas (343 K) [mN/m]	surface tension liquid-gas (348 K) [mN/m]	surface tension liquid-gas (353 K) [mN/m]	surface tension liquid-gas (358 K) [mN/m]	surface tension liquid-gas (363 K) [mN/m]	surface tension liquid-gas (368 K) [mN/m]	surface tension liquid-gas (373 K) [mN/m]	surface tension liquid-gas (378 K) [mN/m]	surface tension liquid-gas (383 K) [mN/m]	surface tension liquid-gas (388 K) [mN/m]	surface tension liquid-gas (393 K) [mN/m]
CCCCCCn1cc[n+](C)c1.[Cl-] [1-hexyl-3-methylimidazolium chloride]	41.8 ± 1.2	41.5 ± 1.2	41.2 ± 1.2	40.8 ± 1.2	40.5 ± 1.2	40.2 ± 1.2	40 ± 1.2	39.8 ± 1.2	39.4 ± 1.2	39.1 ± 1.2	38.8 ± 1.2	38.5 ± 1.1	38.3 ± 1.1	37.9 ± 1.1	37.7 ± 1.1	37.4 ± 1.1	37.1 ± 1.1	36.8 ± 1.1	36.5 ± 1.1	36.2 ± 1.1
CCCCn1cc[n+](C)c1.F[B-](F)(F)F [1-butyl-3-methylimidazolium tetrafluoroborate]	43.6 ± 1.3	43.3 ± 1.2	43 ± 1.2	42.7 ± 1.2	42.3 ± 1.2	42 ± 1.2	41.8 ± 1.2	41.5 ± 1.2	41.2 ± 1.2	40.9 ± 1.2	40.7 ± 1.2	40.4 ± 1.2	40.2 ± 1.2	39.8 ± 1.2	39.5 ± 1.2	39.2 ± 1.2	39 ± 1.2	38.8 ± 1.1	38.5 ± 1.1	38.2 ± 1.1
CCCCCCn1cc[n+](C)c1.[I-] [1-hexyl-3-methylimidazolium iodide]	43.5 ± 1.3	43.1 ± 1.2	42.7 ± 1.2	42.3 ± 1.2	41.9 ± 1.2	41.5 ± 1.2	41.1 ± 1.2	40.8 ± 1.2	40.4 ± 1.2	40.1 ± 1.2	39.7 ± 1.2	39.4 ± 1.2	39 ± 1.2	38.6 ± 1.1	38.3 ± 1.1	37.9 ± 1.1	37.6 ± 1.1	37.2 ± 1.1	36.8 ± 1.1	36.5 ± 1.1
CCCCCCCC[n+]1ccn(C)c1.[Cl-] [1-methyl-3-octylimidazolium chloride]	31.9 ± 1	31.7 ± 1	31.5 ± 1	31.2 ± 1	30.9 ± 1	30.6 ± 1	30.3 ± 1	30 ± 1	29.7 ± 1	29.5 ± 1	29.2 ± 1	28.9 ± 0.9	28.7 ± 0.9	28.4 ± 0.9	28.2 ± 0.9	27.9 ± 0.9	27.6 ± 0.9	27.4 ± 0.9	27 ± 0.9	26.7 ± 0.9
CCCCn1cc[n+](C)c1.F[P-](F)(F)(F)(F)F [1-butyl-3-methylimidazolium hexafluorophosphate]	47.5 ± 1.3	47.2 ± 1.3	46.9 ± 1.3	46.5 ± 1.3	46 ± 1.3	45.6 ± 1.3	45.3 ± 1.3	44.9 ± 1.3	44.6 ± 1.3	44.3 ± 1.3	43.8 ± 1.3	43.5 ± 1.3	43.1 ± 1.2	42.8 ± 1.2	42.4 ± 1.2	42.1 ± 1.2	41.7 ± 1.2	41.3 ± 1.2	41.1 ± 1.2	40.8 ± 1.2
CCCCCCn1cc[n+](C)c1.F[P-](F)(F)(F)(F)F [1-hexyl-3-methylimidazolium hexafluorophosphate]	43.4 ± 1.3	43 ± 1.2	42.6 ± 1.2	42.3 ± 1.2	41.9 ± 1.2	41.5 ± 1.2	41.1 ± 1.2	40.8 ± 1.2	40.5 ± 1.2	40.2 ± 1.2	39.8 ± 1.2	39.5 ± 1.2	39.1 ± 1.2	38.8 ± 1.2	–	–	–	–	–	–
CCCCCCCC[n+]1ccn(C)c1.F[B-](F)(F)F [1-methyl-3-octylimidazolium tetrafluoroborate]	30.7 ± 1	30.4 ± 1	30.1 ± 1	29.9 ± 1	29.6 ± 1	29.4 ± 1	29.2 ± 1	28.9 ± 0.9	28.7 ± 0.9	28.4 ± 0.9	28.2 ± 0.9	27.9 ± 0.9	27.7 ± 0.9	27.4 ± 0.9	27.2 ± 0.9	27 ± 0.9	26.7 ± 0.9	26.5 ± 0.9	26.3 ± 0.9	26 ± 0.9
CCCCn1cc[n+](C)c1.[I-] [1-butyl-3-methylimidazolium iodide]	53.3 ± 1.5	52.9 ± 1.5	52.5 ± 1.5	52.1 ± 1.5	51.5 ± 1.4	51.1 ± 1.4	50.7 ± 1.4	50.3 ± 1.4	49.9 ± 1.4	49.4 ± 1.4	49 ± 1.4	48.6 ± 1.4	48.2 ± 1.4	47.8 ± 1.4	47.4 ± 1.3	47.1 ± 1.3	46.7 ± 1.3	46.3 ± 1.3	46 ± 1.3	45.6 ± 1.3
CCCCCCn1cc[n+](C)c1.F[B-](F)(F)F [1-hexyl-3-methylimidazolium tetrafluoroborate]	39.2 ± 1.2	38.9 ± 1.2	38.7 ± 1.1	38.4 ± 1.1	38.1 ± 1.1	37.9 ± 1.1	37.7 ± 1.1	37.5 ± 1.1	37.2 ± 1.1	36.9 ± 1.1	36.6 ± 1.1	36.4 ± 1.1	36.2 ± 1.1	35.8 ± 1.1	35.6 ± 1.1	35.4 ± 1.1	35.1 ± 1.1	34.9 ± 1.1	34.6 ± 1.1	34.3 ± 1.1
CCCCn1cc[n+](C)c1.[Cl-] [1-butyl-3-methylimidazolium chloride]	48.2 ± 1.4	47.8 ± 1.3	47.5 ± 1.3	47.2 ± 1.3	46.9 ± 1.3	46.6 ± 1.3	46.3 ± 1.3	46 ± 1.3	45.6 ± 1.3	45.3 ± 1.3	45 ± 1.3	44.7 ± 1.3	44.4 ± 1.3	43.9 ± 1.3	43.6 ± 1.3	43.2 ± 1.2	42.9 ± 1.2	42.5 ± 1.2	42.2 ± 1.2	41.8 ± 1.2

Reference: the NIST ThermoML archive (doi:10.1016/j.fluid.2007.10.004)
